According to paper PMC12775434, “Ultra-large virtual screening unveils potent agonists of the neuromodulatory orphan receptor GPR139” (Nature Communications, 2025):
Several values for one entry are separate records, joined by “and”; a condition that tells them apart may be missing. Identical values can stand only once.

What was measured:
Assay type in all cases: cell-based
[1] = target: T1, human muscarinic acetylcholine M1 receptor (M1R) (Homo sapiens, UniProt P11229); assay: Ca2+ mobilization counter-screen in M1R-CHOk1 cells; conditions: individual replicates (Supplementary Figure 5);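 also: 10 µM test compound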
T1 sequence (P11229 1-460): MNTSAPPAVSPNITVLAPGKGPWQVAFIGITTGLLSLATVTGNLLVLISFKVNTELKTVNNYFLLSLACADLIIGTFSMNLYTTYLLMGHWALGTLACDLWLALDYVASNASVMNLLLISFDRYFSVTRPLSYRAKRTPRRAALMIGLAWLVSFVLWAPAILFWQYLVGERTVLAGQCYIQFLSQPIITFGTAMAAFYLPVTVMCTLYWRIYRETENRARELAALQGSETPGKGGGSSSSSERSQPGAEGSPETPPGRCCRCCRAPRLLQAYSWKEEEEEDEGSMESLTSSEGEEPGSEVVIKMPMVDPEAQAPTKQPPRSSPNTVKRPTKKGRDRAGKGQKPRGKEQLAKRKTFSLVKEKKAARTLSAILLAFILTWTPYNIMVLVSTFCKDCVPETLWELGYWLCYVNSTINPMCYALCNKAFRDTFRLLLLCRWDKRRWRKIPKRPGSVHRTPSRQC
Summary of the method: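 Fluorescence (ex 485 nm, em 525 nm) recorded at 37 °C after automated compound addition to CHO-K1 cells stably expressing M1R. Cells were dye-loaded with 2 µM Fluo-4 AM for 1 h at 37 °C, with 2.5 mM probenecid present; final DMSO at most 0.3%.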

GPR139 [2] = target: T2, GPR139 (Homo sapiens, UniProt Q6DWJ6); assay: Ca2+ mobilization assay, antagonist mode (EC80 800 nM Lundbeck Cmp 1a after 20 min preincubation), GPR139-CHOk1; conditions: individual replicates (Supplementary Figure 4)
T2 sequence (Q6DWJ6 1-353): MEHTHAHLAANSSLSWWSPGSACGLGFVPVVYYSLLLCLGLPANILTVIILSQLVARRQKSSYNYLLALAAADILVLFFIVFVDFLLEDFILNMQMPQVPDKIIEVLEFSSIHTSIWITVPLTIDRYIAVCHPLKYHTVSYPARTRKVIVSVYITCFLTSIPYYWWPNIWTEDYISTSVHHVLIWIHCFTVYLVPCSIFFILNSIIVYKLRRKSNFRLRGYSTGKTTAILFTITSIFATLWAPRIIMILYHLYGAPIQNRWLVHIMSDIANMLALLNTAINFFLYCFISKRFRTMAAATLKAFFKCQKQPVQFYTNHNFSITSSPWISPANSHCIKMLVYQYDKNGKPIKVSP
Summary of the method: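 Antagonist mode: 800 nM (EC80) reference agonist Lundbeck Cmp 1a added following 20 min pre-incubation with 10 µM compound. GPR139-CHOk1 cells, Fluo-4 dye, probenecid-containing HEPES buffer pH 7.4; intracellular Ca2+ measured at 37 °C (ex 485, em 525 nm).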

GPR139 [3] = target: T2, GPR139; assay: Ca2+ mobilization assay, agonist mode, stable GPR139-CHOk1 cell line; conditions: for EC50 / Emax: Supplementary Table 2, mean ± SEM; for EC50: read-out: pEC50 Ca2+ (converted); for Emax: normalized to Lundbeck Cmp 1a, read-out: Emax (%) Ca2+
Summary of the method: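 Agonist activity of compounds is assessed in stably transfected CHO-K1 cells using the calcium dye Fluo-4 at 37 °C in HEPES-buffered HBSS (pH 7.4). Efficacy is expressed relative to the reference agonist Lundbeck Cmp 1a, set as 100%.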

[4] = Agonist mode, individual replicates (Supplementary Figure 4)
[5] = log [Compound] M = -4.5, individual replicate columns
[6] = log [Compound] M = -5.0, individual replicate columns
[7] = log [Compound] M = -5.5, individual replicate columns
[8] = log [Compound] M = -6.0, individual replicate columns
[9] = log [Compound] M = -6.5, individual replicate columns
[10] = log [Compound] M = -7.0, individual replicate columns
[11] = log [Compound] M = -7.5, individual replicate columns
[12] = log [Compound] M = -8.0, individual replicate columns
[13] = log [Compound] M = -8.5, individual replicate columns
[14] = log [Compound] M = -9.0, individual replicate columns

EC50 (GPR139 [3]) | Emax (GPR139 [3]) | SMILES | Ca2+ signal (% of Carbachol) [1] | Ca2+ signal (% of Cmp 1a) (GPR139 [2]) | Ca2+ signal (% of Cmp 1a) (GPR139 [3]; [4]) | change in potency with larger substituents on the thiophene ring (GPR139 [3]; Ca2+ mobilization) | Ca2+ signal (% of Cmp 1a) (GPR139 [3]; [5]) | Ca2+ signal (% of Cmp 1a) (GPR139 [3]; [6]) | Ca2+ signal (% of Cmp 1a) (GPR139 [3]; [7]) | Ca2+ signal (% of Cmp 1a) (GPR139 [3]; [8]) | Ca2+ signal (% of Cmp 1a) (GPR139 [3]; [9]) | Ca2+ signal (% of Cmp 1a) (GPR139 [3]; [10]) | Ca2+ signal (% of Cmp 1a) (GPR139 [3]; [11]) | Ca2+ signal (% of Cmp 1a) (GPR139 [3]; [12]) | Ca2+ signal (% of Cmp 1a) (GPR139 [3]; [13]) | Ca2+ signal (% of Cmp 1a) (GPR139 [3]; [14])
1260 nM | 88 ± 6% | Cc1c(-c2nc(CC(=O)NC(C)c3ccccc3)no2)sc2nccn12 (stereo not shown) [Compound 1.21, CC(C1=CC=CC=C1)NC(CC2=NOC(C3=C(C)N4C=CN=C4S3)=N2)=O] | -6 % of Carbachol and -2 % of Carbachol and -1.22 % of Carbachol | 8 % of Cmp 1a and 24 % of Cmp 1a and 21 % of Cmp 1a | 51 % of Cmp 1a and 103 % of Cmp 1a and 63 % of Cmp 1a | three-fold reduction to a complete loss of activity | 99 % of Cmp 1a and 106 % of Cmp 1a and 96 % of Cmp 1a and 82 % of Cmp 1a and 98 % of Cmp 1a | 106 % of Cmp 1a and 89 % of Cmp 1a and 74 % of Cmp 1a and 87 % of Cmp 1a and 93 % of Cmp 1a | 113 % of Cmp 1a and 82 % of Cmp 1a and 55 % of Cmp 1a and 93 % of Cmp 1a and 79 % of Cmp 1a | 58 % of Cmp 1a and 46 % of Cmp 1a and 13 % of Cmp 1a and 61 % of Cmp 1a and 35 % of Cmp 1a | 30 % of Cmp 1a and 22 % of Cmp 1a and -9 % of Cmp 1a and 34 % of Cmp 1a and 9 % of Cmp 1a | 11 % of Cmp 1a and 3.59 % of Cmp 1a and -6 % of Cmp 1a and 13 % of Cmp 1a and 2 % of Cmp 1a | -0.321 % of Cmp 1a and 1.12 % of Cmp 1a and 16 % of Cmp 1a and 9 % of Cmp 1a and 1.36 % of Cmp 1a | -0.311 % of Cmp 1a and 5 % of Cmp 1a and 16 % of Cmp 1a and 8 % of Cmp 1a and 4 % of Cmp 1a | -0.779 % of Cmp 1a and 5.49 % of Cmp 1a and -3.74 % of Cmp 1a and 4.43 % of Cmp 1a and 2.79 % of Cmp 1a | 6.41 % of Cmp 1a and 9 % of Cmp 1a and -8 % of Cmp 1a and 7.41 % of Cmp 1a and -0.105 % of Cmp 1a
3160 nM | 86 ± 5% | Cc1ccc(-c2nc(CC(=O)NC(C)c3ccccc3)no2)nc1C (stereo not shown) [Compound 1.31, CC(C1=CC=CC=C1)NC(CC2=NOC(C3=NC(C)=C(C)C=C3)=N2)=O] | -8 % of Carbachol and 0.74 % of Carbachol and -0.0562 % of Carbachol | 38 % of Cmp 1a and 34 % of Cmp 1a and 35 % of Cmp 1a | 66 % of Cmp 1a and 63 % of Cmp 1a and 64 % of Cmp 1a | – | 86 % of Cmp 1a and 82 % of Cmp 1a and 66 % of Cmp 1a and 84 % of Cmp 1a and 90 % of Cmp 1a | 64 % of Cmp 1a and 55 % of Cmp 1a and 44 % of Cmp 1a and 70 % of Cmp 1a and 87 % of Cmp 1a | 36 % of Cmp 1a and 30 % of Cmp 1a and 18 % of Cmp 1a and 73 % of Cmp 1a and 76 % of Cmp 1a | 7 % of Cmp 1a and 7.42 % of Cmp 1a and 11 % of Cmp 1a and 39 % of Cmp 1a and 38 % of Cmp 1a | 11 % of Cmp 1a and -0.0559 % of Cmp 1a and -2.48 % of Cmp 1a and 12 % of Cmp 1a and 13 % of Cmp 1a | -0.363 % of Cmp 1a and -3.44 % of Cmp 1a and 5.45 % of Cmp 1a and 7 % of Cmp 1a and 2.52 % of Cmp 1a | -1.4 % of Cmp 1a and 1.28 % of Cmp 1a and 5 % of Cmp 1a and 4.53 % of Cmp 1a and 3 % of Cmp 1a | 2 % of Cmp 1a and 3.59 % of Cmp 1a and 6 % of Cmp 1a and 2.52 % of Cmp 1a and -0.475 % of Cmp 1a | 1.45 % of Cmp 1a and 1.69 % of Cmp 1a and 3 % of Cmp 1a and 2.45 % of Cmp 1a and -0.45 % of Cmp 1a | 1.77 % of Cmp 1a and -0.256 % of Cmp 1a and 3.41 % of Cmp 1a and 8 % of Cmp 1a and 5 % of Cmp 1a
